# Measured values from patent US5739284A, “Compositions corresponding to a high-affinity glutamate transporter molecule and methods for making and using same” (Brigham and Women's Hospital, Inc., priority 1995, dated 1998).
# Assays:
# [1] = system: excitatory amino acid carrier protein derived from rabbit; experiment: effect of external K+ on current evoked by L-glutamate; type: cell-based; conditions: 50 μM L-glutamate, 0-50 mM K+, -30 mV, FIG. 10
# Method: Xenopus laevis oocytes were injected with cRNA (25 ng/oocyte) encoding for the excitatory amino acid carrier protein derived from rabbit as described in Example 1. Electrophysiological measurements were performed 3-4 days after injection using a conventional two-microelectrode voltage clamp method (Axoclamp-2A, Axon Instruments, CA).
# The bath medium were prepared containing potassium ion concentrations in concentrations ranging from 0 mM-50 mM. The bath media were held at a holding potential of -30 mV, and normalized to the current measured on the same oocyte (the value at 0 mM K^+ is 100%). Consecutive current measurements were made on single oocytes after changing to bath medium containing the appropriate K^+ concentration. […] The bath medium contained z mM KCl (where z=0-50), 50-z mM choline Cl, 50 mM NaCl, 1.8 mM CaCl2, 1.0 mM MgCl2, 10 mM BaCl2, 5 mM HEPES pH 7.4.
# [2] = target: T1, excitatory amino acid carrier protein (EAAC1) derived from rabbit (Oryctolagus cuniculus, UniProt P31597); experiment: uptake of 14C-L-glutamate or 14C-L-aspartate by Xenopus oocytes injected with rabbit EAAC1 cRNA; type: cell-based; conditions: carrier protein of Seq. ID No. 4
# T1 sequence (P31597 1-524): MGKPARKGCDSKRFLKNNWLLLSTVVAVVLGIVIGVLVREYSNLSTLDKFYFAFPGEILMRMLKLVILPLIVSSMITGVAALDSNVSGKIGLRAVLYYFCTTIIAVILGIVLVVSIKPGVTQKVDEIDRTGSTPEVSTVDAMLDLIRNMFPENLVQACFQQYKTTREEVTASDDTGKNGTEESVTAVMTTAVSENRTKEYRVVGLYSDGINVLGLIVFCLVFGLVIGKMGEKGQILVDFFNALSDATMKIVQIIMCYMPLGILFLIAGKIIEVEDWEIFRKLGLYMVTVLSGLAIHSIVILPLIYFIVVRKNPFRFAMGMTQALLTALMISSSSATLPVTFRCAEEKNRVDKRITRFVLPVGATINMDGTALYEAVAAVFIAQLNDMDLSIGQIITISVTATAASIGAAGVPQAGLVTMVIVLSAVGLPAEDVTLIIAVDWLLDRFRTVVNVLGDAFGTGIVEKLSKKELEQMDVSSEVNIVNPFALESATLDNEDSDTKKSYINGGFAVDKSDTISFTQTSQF
# Method: Poly(A)^+ RNA was isolated and injected into collagenase-treated and manually-defolliculated Xenopus laevis oocytes.
# All uptakes in this and the following figures were performed with 6-8 oocytes, 3 days after injection. […] For the sodium-free medium, sodium chloride was replaced by Choline-chloride. RNA-injected oocytes were injected with 25 ng cRNA in 50 nl.
# The solutions described above were modified to the extent that acetate ion was substituted for chloride ion.
SMILES,inhibition of L-glutamate evoked current by external K+ [1],activity for glutamine transport [2]
"[K+] [K^+, potassium ion]",greater degree of inhibition of current at higher K^+ concentration,
NC(=O)CC[C@H](N)C(=O)O [Glutamine],,slight activity
